# System: 743489-274-T-PDC complex spheroid growth
# Test: Anticancer human tumor 743489-274-T-PDC patient-derived renal cell carcinoma cell line growth inhibition [AhR]
# Conditions: for IC50: curve of first compound; for viability, T/C: stronger effect = lower value
# Outline: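 Complex tumor spheroids co-cultured with HUVEC and human MSC stroma; AhR antagonists tested in combination with standard-of-care and investigational agents. Top concentration at or near clinical Cmax (else 10 microM), half-log dilutions; growth expressed as percent test/control.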
# [1] = second compound 0.1 µM, first compound 0.000949 µM
# [2] = second compound 0.1 µM, first compound 0.003 µM
# [3] = second compound 0.1 µM, first compound 0.00949 µM
# [4] = second compound 0.1 µM, first compound 0.03 µM
# [5] = second compound 0.1 µM, first compound 0.0949 µM
# [6] = second compound 0.1 µM, first compound 0.3 µM
# [7] = second compound 0.316 µM, first compound 0.000949 µM
# [8] = second compound 0.316 µM, first compound 0.003 µM
# [9] = second compound 0.316 µM, first compound 0.00949 µM
# [10] = second compound 0.316 µM, first compound 0.03 µM
# [11] = second compound 0.316 µM, first compound 0.0949 µM
# [12] = second compound 0.316 µM, first compound 0.3 µM
# [13] = second compound 1 µM, first compound 0.000949 µM
# [14] = second compound 1 µM, first compound 0.003 µM
# [15] = second compound 1 µM, first compound 0.00949 µM
# [16] = second compound 1 µM, first compound 0.03 µM
# [17] = second compound 1 µM, first compound 0.0949 µM
# [18] = second compound 1 µM, first compound 0.3 µM
# [19] = second compound 3.16 µM, first compound 0.000949 µM
# [20] = second compound 3.16 µM, first compound 0.003 µM
# [21] = second compound 3.16 µM, first compound 0.00949 µM
# [22] = second compound 3.16 µM, first compound 0.03 µM
# [23] = second compound 3.16 µM, first compound 0.0949 µM
# [24] = second compound 3.16 µM, first compound 0.3 µM
# [25] = second compound 10 µM, first compound 0.000949 µM
# [26] = second compound 10 µM, first compound 0.003 µM
# [27] = second compound 10 µM, first compound 0.00949 µM
# [28] = second compound 10 µM, first compound 0.03 µM
# [29] = second compound 10 µM, first compound 0.0949 µM
# [30] = second compound 10 µM, first compound 0.3 µM
# 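Also: spheroids exposed to agents for 7 days before readout.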
# 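For viability, T/C in this document: 100% = DMSO vehicle control wells.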
SMILES,IC50 (second compound 0.1 µM) [nM],IC50 (second compound 0.316 µM) [nM],IC50 (second compound 1 µM) [nM],IC50 (second compound 3.16 µM) [nM],IC50 (second compound 10 µM) [nM],"viability, T/C [1] [%]","viability, T/C [2] [%]","viability, T/C [3] [%]","viability, T/C [4] [%]","viability, T/C [5] [%]","viability, T/C [6] [%]","viability, T/C [7] [%]","viability, T/C [8] [%]","viability, T/C [9] [%]","viability, T/C [10] [%]","viability, T/C [11] [%]","viability, T/C [12] [%]","viability, T/C [13] [%]","viability, T/C [14] [%]","viability, T/C [15] [%]",further results
Nc1ncn(C2CC(O)C(CO)S2)c(=O)n1 (stereo not given) + CC(CO)NC(=O)c1cc(-c2ccc(Cl)cc2)nn(-c2cnn(C)c2)c1=O,> 300,> 300,> 300,> 300,> 300,93.7,111,102,96,96,114,103,92.9,93,88,86.9,95.1,92.4,89.3,91.7,"viability, T/C [16]: 101%; viability, T/C [17]: 87.7%; viability, T/C [18]: 101%; viability, T/C [19]: 103%; viability, T/C [20]: 95.7%; viability, T/C [21]: 84.4%; viability, T/C [22]: 88.3%; viability, T/C [23]: 86.8%; viability, T/C [24]: 92.9%; viability, T/C [25]: 95.5%; viability, T/C [26]: 95.1%; viability, T/C [27]: 91.2%; viability, T/C [28]: 95.1%; viability, T/C [29]: 93.4%; viability, T/C [30]: 86.9%"
Nc1ncn(C2CC(O)C(CO)S2)c(=O)n1 (stereo not given) + Cc1cncc(-c2nc(NCCc3c[nH]c4ccccc34)c3ncn(C(C)C)c3n2)c1,> 300,> 300,> 300,> 300,> 300,107,105,104,95.8,96.5,93.1,96.6,99.8,104,98.3,84.7,101,108,100,106,"viability, T/C [16]: 106%; viability, T/C [17]: 98.8%; viability, T/C [18]: 103%; viability, T/C [19]: 114%; viability, T/C [20]: 106%; viability, T/C [21]: 119%; viability, T/C [22]: 118%; viability, T/C [23]: 109%; viability, T/C [24]: 96.2%; viability, T/C [25]: 138%; viability, T/C [26]: 115%; viability, T/C [27]: 117%; viability, T/C [28]: 124%; viability, T/C [29]: 112%; viability, T/C [30]: 125%"
